The IC50 is the concentration needed to halve the response being measured.

Data on 14 molecules can be found in US10442803B2, “Tricyclic heterocycles as bet protein inhibitors” (Incyte Corporation, priority 2013, dated 2019).

Each structure is given as a SMILES string.

The subject of this experiment is KMS.12.BM cells. Description: KMS.12.BM cell viability assay. Particulars: 72 h; KMS.12.BM human myeloma cells, 3 days, Cell Titer-GLO ATP quantitation; read-out: KMS cellular IC50. In kind it is cell-based. The essentials: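 IC50 derived from luminescent ATP quantitation (Cell Titer-GLO) of viable cells after 3-day compound treatment. KMS.12.BM human myeloma line seeded at 5000 cells/well in RPMI with 10% FBS.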
Consider `Cc1cc2c(cc(NCCCN)c3nnc(C)n32)n1Cc1ccccc1` [Example 257, N1-(6-Benzyl-1,7-dimethyl-6H-pyrrolo[2,3-e][1,2,4]triazolo[4,3-a]pyridin-4-yl)propane-1,3-diamine], for which the IC50 is no more than 1000 nM.

As for `Cc1cc2c(cc(NCCN)c3nnc(C)n32)n1Cc1ccccc1` [Example 258, N1-(6-benzyl-1,7-dimethyl-6H-pyrrolo[2,3-e][1,2,4]triazolo[4,3-a]pyridin-4-yl)ethane-1,2-diamine], the IC50 was no more than 1000 nM.

In the case of `CCNc1cc2c(cc(C)n2Cc2ccccc2)n2c(C)nnc12` [Example 259, 6-Benzyl-N-ethyl-1,7-dimethyl-6H-pyrrolo[2,3-e][1,2,4]triazolo[4,3-a]pyridin-4-amine], the IC50 was no more than 1000 nM.

For `Cc1cc2c(cc(Nc3ccccc3)c3nnc(C)n32)n1Cc1ccccc1` [Example 260, 6-Benzyl-1,7-dimethyl-N-phenyl-6H-pyrrolo[2,3-e][1,2,4]triazolo[4,3-a]pyridin-4-amine], the IC50 was 1000 to 10000 nM.

`CNc1cc2c(cc(C)n2Cc2ccccc2)n2c(C)nnc12` [Example 261, 6-Benzyl-N,1,7-trimethyl-6H-pyrrolo[2,3-e][1,2,4]triazolo[4,3-a]pyridin-4-amine]: the IC50 was no more than 1000 nM.

For the molecule `CCCNc1cc2c(cc(C)n2Cc2ccccc2)n2c(C)nnc12` [Example 262, 6-Benzyl-N-propyl-1,7-dimethyl-6H-pyrrolo[2,3-e][1,2,4]triazolo[4,3-a]pyridin-4-amine], the IC50 lay in the range of 1000 to 10000 nM.

On to `Cc1cc2c(cc(NC(C)C)c3nnc(C)n32)n1Cc1ccccc1` [Example 263, 6-Benzyl-N-isopropyl-1,7-dimethyl-6H-pyrrolo[2,3-e][1,2,4]triazolo[4,3-a]pyridin-4-amine], for which the IC50 fell in the range of 1000 to 10000 nM.

Regarding `CC(=O)Nc1cc2c(cc(C)n2Cc2ccccc2)n2c(C)nnc12` [Example 266, N-(6-Benzyl-1,7-dimethyl-6H-pyrrolo[2,3-e][1,2,4]triazolo[4,3-a]pyridin-4-yl)acetamide], the IC50 is no more than 1000 nM.

As to `CCCC(=O)Nc1cc2c(cc(C)n2Cc2ccccc2)n2c(C)nnc12` [Example 267, N-(6-Benzyl-1,7-dimethyl-6H-pyrrolo[2,3-e][1,2,4]triazolo[4,3-a]pyridin-4-yl)butyramide], the IC50 was no more than 1000 nM.

Take `CCC(=O)Nc1cc2c(cc(C)n2Cc2ccccc2)n2c(C)nnc12` [Example 268, N-(6-Benzyl-1,7-dimethyl-6H-pyrrolo[2,3-e][1,2,4]triazolo[4,3-a]pyridin-4-yl)propionamide]: the IC50 was no more than 1000 nM.

Regarding `Cc1cc2c(cc(NC(=O)C3CC3)c3nnc(C)n32)n1Cc1ccccc1` [Example 269, N-(6-Benzyl-1,7-dimethyl-6H-pyrrolo[2,3-e][1,2,4]triazolo[4,3-a]pyridin-4-yl)cyclopropanecarboxamide], the IC50 was no more than 1000 nM.

For the molecule `Cc1cc2c(cc(NC(=O)C(C)C)c3nnc(C)n32)n1Cc1ccccc1` [Example 270, N-(6-Benzyl-1,7-dimethyl-6H-pyrrolo[2,3-e][1,2,4]triazolo[4,3-a]pyridin-4-yl)isobutyramide], the half-inhibitory concentration (IC50) is no more than 1000 nM.

Take `Cc1cc2c(cc(NS(C)(=O)=O)c3nnc(C)n32)n1Cc1ccccc1` [Example 271, N-(6-Benzyl-1,7-dimethyl-6H-pyrrolo[2,3-e][1,2,4]triazolo[4,3-a]pyridin-4-yl)methanesulfonamide]: the IC50 was no more than 1000 nM.

Take `COC(=O)Nc1cc2c(cc(C)n2Cc2ccccc2)n2c(C)nnc12` [Example 272, Methyl 6-benzyl-1,7-dimethyl-6H-pyrrolo[2,3-e][1,2,4]triazolo[4,3-a]pyridin-4-ylcarbamate]: the IC50 was no more than 1000 nM.
